Values quoted from earlier work as cited in patent US5536812A, “Calcitonin analogue and use thereof” (Sanwa Kagaku Kenkyusho Co., Ltd., priority 1994, dated 1996).

Key:
[1] = tested on: Wister male rat; conditions: standard manufactured by Penisula Lab. Inc., Lot No. 015405
[2] = analogue of Jap. Pat. Hei 4-59795(A) / EP-A-0 464 549

For eel calcitonin, the “Activity of the eel calcitonin standard” value [1] is given as 4500 IU/mg.

In the case of salmon I calcitonin-Hse^33 -NH2, the “biological activities compared with native Salmon I calcitonin” value [2] is given as “substantially same with the native Salmon I calcitonin”.
